A melting point compilation (Tetko et al.; mined from patent text by program, amines drawn as free bases though some values may be those of a salt)

Structure (SMILES) | melting point [°C]
CC(=O)c1cc(CO)c(OCCCCC#N)cc1OCCCCC#N | 98 to 99
CC(Oc1ccc2nc(NC(=O)NCCN3CCOCC3)sc2c1)c1c(Cl)ccc(F)c1Cl (stereo unspecified) | 110
Cc1cc([N+](=O)[O-])c(NC(C)C(=O)N(C)OS(C)(=O)=O)c([N+](=O)[O-])c1 (stereo unspecified) | 145
COc1c(Cl)ccc(-c2nc(C(=O)OC(C)C)cc(Cl)c2Cl)c1F | 124 to 128
COc1ccc(NC(=NC#N)NC(NC(=O)c2cccc(Cl)c2)C(C)(Cl)Cl)cn1 (stereo unspecified) | 189 to 190
OC1CSC(Oc2cncc(-c3cccs3)c2)C(O)C1O (stereo unspecified) | 205
Nc1nc2ccccc2c2c1ncn2CCOCC#Cc1cccs1 | 148 to 150
COC(=O)C(Cl)=Cc1cc([N+](=O)[O-])ccc1Cl | 108 to 110
C#CCN(c1ccc(C(=O)NC(CCc2nnn[nH]2)C(=O)O)nc1)C1CCc2cc3nc(C)[nH]c(=O)c3cc21 (mixture of isomers) | 189 to 191
Cc1c(C)n(CC=C(Cl)Cl)c2c(OCc3ccccc3)nncc12 | 149 to 151
Cc1cccc(C(=O)CCSC(=S)Nc2ccc(Cl)cn2)c1 | 153
CCC(COCc1cccc(Cl)c1)n1cnc2c(N)nc3ccccc3c21 (stereo unspecified) | 60 to 62
Cc1nnc(N2CCN(C=O)CC2)c2cc3ccccn3c12 | 325
Fc1cccc2c1CNC2 | 46.5 to 48.5
CCOCCOC(=O)C1=C(C)NC(C)=C([N+](=O)[O-])C1c1cccc([N+](=O)[O-])c1 (stereo unspecified) | 140
O=Cc1cn(Cc2ccc(Cl)cc2)c2ccccc12 | 122
CCOC(=O)c1cnc2n(c1=O)CCCC2CC(=O)O (stereo unspecified) | 156 to 157
Cc1oc(-c2ccccc2)nc1COc1ccc(CON=C(CCC(=O)O)c2ccccn2)cc1 | 116 to 117
CC(C)(C)[Si](OCCCc1ccc(OCC(=O)O)cc1)(c1ccccc1)c1ccccc1 | 87 to 88
CN1Cc2ccc(COc3cccc4c3CN(C3CCC(=O)NC3=O)C4=O)cc2C1 (stereo unspecified) | 262 to 264
CCCCCCCCCCCCCCCCCCOCC(O)Cn1ccc(N)nc1=O (stereo unspecified) | 153 to 154
CSCC[C@H](NC(=O)[C@@H](N)CC(C)C)[C@@H](O)c1nccs1 | 83 to 85
CC(=O)OC1Cc2ccc([N+](=O)[O-])cc2C1 (stereo unspecified) | 84 to 85
COC(=O)COc1cccc(CCN(C)CCCC(C#N)(c2ccc(OC)c(OC)c2)C(C)C)c1 (stereo unspecified) | 96 to 100
CSc1ccc2c(c1)C(=O)OC2=O | 157 to 160
CCOC(=O)COc1ccc2c(c1)CCC2=O | 59 to 61

Structure (SMILES) | melting point [°C]
CCOC(=O)/C=C/c1cccc(C2CCCC2)c1OCCc1ccccc1 | 78 to 80
COc1ccc(OCCOCn2cnc3ncnc(N)c32)cc1 | 129 to 130
COc1ccc(-c2cc3cc(OC)cc(CBr)c3o2)cc1 | 158 to 160
CCCCCCCCSC(CCCCC)CCn1ccnc1 (stereo unspecified) | 105 to 108
CCOC(=O)c1ccc2nc(NC(C)=O)n(S(=O)(=O)N(C)C)c2c1 | 155 to 157
O=C1N=c2cc(O)c(O)c(O)c2=NC1=O | > 350
CN(C)C(=O)CC1CN=C(c2cc3cccc(N(C)S(=O)(=O)c4cccs4)c3[nH]2)S1 (stereo unspecified) | 153 to 154
COc1cc2ccc(C(=O)CCC(=O)O)cc2cc1OC | 215 to 229
CC(O)CNc1nc(NCc2ccccc2N)c2ncn(C(C)C)c2n1 (racemic) | 175 to 179
O=c1cnn(CCCCCl)c(=O)[nH]1 | 93
CCN(CC)CCNC(=NC#N)NCCCSc1nccc(NC(N)=NCC(F)(F)F)n1 | 76 to 80
CCC(=O)N[C@H]1CC[C@H](CCN2CCN(c3nccc4c3CCO4)CC2)CC1 | 192
O=C(O)c1ccc(C(=O)N(Cc2ccccc2)S(=O)(=O)c2ccc(Br)cc2)cc1 | 193 to 194
COC(=O)C(=O)CC(=O)c1cc(F)c(OC)c(F)c1 | 185 to 190
CC1(C)C(C=C(Cl)Cl)C1C(=O)OC(c1cccc(Oc2ccc(F)cc2)n1)C(F)(F)F (stereo unspecified) | 69 to 72
CCCc1cc(Cl)c2oc(Cc3ccc(OCC(=O)O)cc3)c(C)c2c1O | 179 to 180
CCOC(=O)N1C(=S)NC(C)=C(C(=O)OC(C)C)C1c1cccc([N+](=O)[O-])c1 (single isomer, unassigned; (-)) | 120 to 122
CN1CCN(c2cccc3c2C[C@H](NC(=O)c2ccc(-c4ccccc4)cc2)CC3)CC1 | 232 to 233
CN(C)c1ccc(S(=O)c2ccccc2)cc1[N+](=O)[O-] (stereo unspecified) | 125 to 126
O=C(Cn1ccnc1)c1cccc(-c2ccccc2)c1 | 128 to 129
CC(C)CC(CS)C(=O)NCC(=O)NC(CCCNC(=N)N)C(=O)O (stereo unspecified) | 132 to 146
COc1nc(NC(=N)SC)nc(OC)n1 | 94 to 100
O=C(O)Cc1ccc(NC(=O)C(Cc2ccccc2)NS(=O)(=O)c2ccc(Br)cc2)cc1 (racemic) | 184 to 185
CC1(C)OC(=O)Nc2c(F)cc(-c3csc(C#N)c3)cc21 | 250 to 251
COCCOc1cc(N(C)S(=O)(=O)c2ccccn2)c2[nH]c(C3=NCC(CN4CCS(=O)(=O)CC4)S3)cc2c1 (stereo unspecified) | 115
COc1ccc(C2Sc3cc(Oc4cccc(C)c4)ccc3NC(=O)C2O)cc1 (stereo unspecified) | 201 to 202

Structure (SMILES) | melting point [°C]
CCCS(=O)(=O)Nc1ccc(Sc2c(O)c3c(=O)n(-c4ccccc4)c4ccccc4c3oc2=O)cc1 | 249 to 251
COc1cc(Oc2ccc(S(C)(=O)=O)cn2)cc2cc(C3=NCC(CC(C)(C)O)S3)[nH]c12 (stereo unspecified) | 171 to 173
CC(Cl)C(=O)c1ccc(OCCCN2C(=O)c3ccccc3C2=O)cc1 (stereo unspecified) | 137 to 138
Nc1cccc(NC(=O)C(=O)C(=O)O)c1 | 246
COC1C2=C3C(=CN1OC)OCCC3CCC2 (stereo unspecified) | 235 to 238
CCOC(OCC)C(=O)Nc1ccc(Cl)cc1N | 89 to 90
CC(=O)Oc1ccc(C(=O)O)cc1Cl | 152 to 159
Cc1c2c(c(C(C)(O)c3ccc(C(C)C)cc3)c(C)c1NC(=O)OC(C)(C)C)OCC2 (stereo unspecified) | 185 to 186
CCCCc1ccc(-c2ccc(CCc3cc(F)cc(F)c3)cc2)cc1 | 59
Cc1nc(N)sc1-c1ccnc(Nc2ccc(N3CCSCC3)cc2)n1 | 180 to 182
CCCCCCOc1ccc(C(=O)NCCC(C)(C)C)cn1 | 75 to 76.5
CCCCCCCOc1ccc(CNc2ccc(C(=O)OCC)cc2)cc1 | 111 to 113
Clc1cnc2[nH]c3ccc(CCc4ccccc4)cc3c2c1 | 216 to 220
CCCOCCN(CC)c1ccc(-c2ccc3c(c2)C=C(C(=O)O)CCN3C=O)cc1 | 169 to 171
CC1CC(=O)NN=C1c1ccc(NC(=O)OCC2CC2)cc1 (stereo unspecified) | 240 to 241
CCCCOC(=O)Cc1nc(-c2ccc(F)cc2)oc1-c1ccsc1 | 81 to 82
CCOC(=O)C1=C(CCl)NC(C)=C(C(=O)OC)C1c1cccc([N+](=O)[O-])c1 (stereo unspecified) | 119 to 120
CCCCc1noc(-c2ccc(C(=O)NCCC(C)(C)C)cc2)n1 | 95 to 97
Cc1nnc(-c2ccc3occ(-c4ccc(C(=O)O)cc4Cl)c3c2)o1 | 267 to 268
CC(C)(C)OC(=O)N=C(N)N(CCc1ccc(OCCC2Oc3c(Cl)cc(Cl)cc3N(Cc3cccc(Cl)c3)C2=O)cc1)C(=O)OC(C)(C)C (stereo unspecified) | 115 to 117
CP1(=O)c2ccccc2CN1c1cccc(C(F)(F)F)c1 (stereo unspecified) | 161 to 163
COCCc1sc2ncnc(N)c2c1-c1ccc(NC(=O)Nc2ccccc2C)cc1 | 217 to 219
CCCCCCCCCCOc1ccc(O)c2ccccc12 | 89 to 90
Nc1cccc(-c2cc3[nH]c4ccc(O)cc4c3c3c2C(=O)NC3=O)c1 | 279 to 284
O=C(NCCO)c1cccc(-c2cccc3c2CC(Cc2cccc(C(F)(F)F)c2)O3)c1 (stereo unspecified) | 120 to 121
O=C(NCCCCn1cncn1)c1ccc(Cl)s1 | 97 to 99

Structure (SMILES) | melting point [°C]
CC1(C)CC(N=[N+]=[N-])c2cc(C#N)ccc2O1 (stereo unspecified) | 63 to 64
CN1c2ccccc2-n2cc(Cc3cccnc3)c(=O)c3cccc1c32 | 96.8 to 97.6
Cc1ccccc1C(=O)N1CCC(=O)c2ccc(Cl)cc21 | 106 to 108
CC(=O)OCCc1c(N)cc(OCc2ccccc2)c2ccccc12 | 76 to 82
CCn1c(=O)c(Oc2ccc(F)cc2F)cc2cnc(S(C)(=O)=O)nc21 | 128 to 129
O=C(Nc1cc2ncc(CN3CCCC3)cc2cc1N1CCCC1)c1ccc(Br)cc1 | 171 to 173
CCCCCCCCCCCCCCCCCC(=O)NCCOC(=O)CCc1cc(C(C)(C)C)c(O)c(C(C)(C)C)c1 | 52 to 55
CN(Cc1ccccc1)c1cc(-c2nc(=O)c3ccccc3s2)ccn1 | 146 to 147
COc1ccc(C(C#N)=NO)cc1OC | 183 to 191
COc1ccc(C(=O)OCc2ccccc2)cc1NC(=S)Nc1cc(Cl)cc(Cl)c1 | 144 to 145
CCCCCCCCCCCCc1c[nH]c(C(=O)OC)c1 | 68 to 69
O=C(O)c1c(-c2ccccc2)csc1N1C(=O)c2ccccc2C1=O | 198 to 199
Nc1ccccc1Nc1ccccc1F | 82 to 83
NS(=O)(=O)C1=CC2=C(OCCO)CCS(=O)(=O)C2S1 (stereo unspecified) | 159 to 164
O=C(O)C1C=C(c2ccccc2)CC1 (stereo unspecified) | 122 to 124
CC(=O)NC(n1ccnc1)C(Cl)(Cl)CCl (stereo unspecified) | 151 to 154
C[C@H](O)c1nnc(-c2ccc3occ(-c4ccc(S(C)(=O)=O)cc4)c3c2)o1 | 175 to 176
CCCCCCOc1nccc(C(N)=O)c1Cl | 75 to 77
CCOC(=O)C(C#N)C1(C#N)C(=O)N(Cc2ccc(Br)cc2F)c2c(C)cccc21 (stereo unspecified) | 130 to 132
COc1ccc(-c2ncn(C3CCCCO3)c2-c2ccc(OC)cc2)cc1 (stereo unspecified) | 127 to 128
CCCCCCCCOc1cnc(-c2ccc(OC(=O)[C@H]3CCCO3)cc2)nc1 | 90
CCOCc1nc2c(NC(=O)C(C)C)nc3ccccc3c2n1CC(C)(C)NS(C)(=O)=O | 67 to 70
Cc1ccc(-n2cccc2-c2ccc(S(N)(=O)=O)cc2)cc1 | 131 to 134
